Data as given in US12077503B2, “Substituted cyclic amides and their use as herbicides” (FMC CORPORATION, priority 2015, dated 2024).

Assays:
Assay type in all cases: in vivo
[1] = tested on: ivy-leaved morning glory (Ipomoea hederacea); test: Test G Post-Emergence Protocol; settings: Ipomoea, post-emergence, 312 h; for pest or weed control at 15.625 g/ha: 15.625 g ai/ha, evaluated after 13 days (100=total damage to plant; 0=no damage to plant), read-out: Morningglory, Ivy-leaved damage rating; for pest or weed control at 62.5 g/ha: 62.5 g ai/ha, read-out: Morningglory, Ivy-leaved damage rating (100=total damage to plant; 0=no damage to plant); for pest or weed control at 62.5 g/ha / pest or weed control at 250 g/ha: evaluated after 13 days; for pest or weed control at 250 g/ha: 250 g ai/ha, read-out: damage to plant, Morningglory, Ivy-leaved (100=total damage to plant; 0=no damage to plant)
Summary of the method: (§1)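 Pot-grown seedlings, 8 days old, raised in a glasshouse at 24/16 °C day/night with 14 h light and 65% humidity, were sprayed post-emergence with test compound in acetone/water (50:50) plus 0.5% Tween 20 at 15.625, 62.5 or 250 g/ha. Damage was scored visually 13 days later on a 0–100 scale (100 = total damage).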

corn (Zea mays) [2] = test: Test G Post-Emergence Protocol; settings: Zea mays, post-emergence, 312 h; for plant injury at 15.625 g/ha: 15.625 g ai/ha, evaluated after 13 days (100=total damage to plant; 0=no damage to plant), read-out: Corn damage rating; for plant injury at 62.5 g/ha: 62.5 g ai/ha, read-out: Corn damage rating (100=total damage to plant; 0=no damage to plant); for plant injury at 62.5 g/ha / plant injury at 250 g/ha: evaluated after 13 days; for plant injury at 250 g/ha: 250 g ai/ha, read-out: damage to plant, Corn (100=total damage to plant; 0=no damage to plant)
Summary of the method: as §1

[3] = tested on: barnyardgrass (Echinochloa crus-galli); test: Test G Post-Emergence Protocol; settings: Echinochloa crus-galli, post-emergence, 312 h; for pest or weed control at 15.625 g/ha: 15.625 g ai/ha, evaluated after 13 days (100=total damage to plant; 0=no damage to plant), read-out: Barnyardgrass damage rating; for pest or weed control at 62.5 g/ha: 62.5 g ai/ha, read-out: Barnyardgrass damage rating (100=total damage to plant; 0=no damage to plant); for pest or weed control at 62.5 g/ha / pest or weed control at 250 g/ha: evaluated after 13 days; for pest or weed control at 250 g/ha: 250 g ai/ha, read-out: damage to plant, Barnyardgrass (100=total damage to plant; 0=no damage to plant)
Summary of the method: as §1

[4] = tested on: giant foxtail (Setaria faberi); test: Test G Post-Emergence Protocol; settings: Setaria faberi, post-emergence, 312 h; for pest or weed control at 15.625 g/ha: 15.625 g ai/ha, evaluated after 13 days (100=total damage to plant; 0=no damage to plant), read-out: Foxtail, Giant damage rating; for pest or weed control at 62.5 g/ha: 62.5 g ai/ha, read-out: Foxtail, Giant damage rating (100=total damage to plant; 0=no damage to plant); for pest or weed control at 62.5 g/ha / pest or weed control at 250 g/ha: evaluated after 13 days; for pest or weed control at 250 g/ha: 250 g ai/ha, read-out: damage to plant, Foxtail, Giant (100=total damage to plant; 0=no damage to plant)
Summary of the method: as §1

[5] = tested on: redroot pigweed (Amaranthus retroflexus); test: Test G Post-Emergence Protocol; settings: Amaranthus retroflexus, post-emergence, 312 h; for pest or weed control at 15.625 g/ha: 15.625 g ai/ha, evaluated after 13 days (100=total damage to plant; 0=no damage to plant), read-out: Pigweed, Redroot damage rating; for pest or weed control at 62.5 g/ha: 62.5 g ai/ha, read-out: Pigweed, Redroot damage rating (100=total damage to plant; 0=no damage to plant); for pest or weed control at 62.5 g/ha / pest or weed control at 250 g/ha: evaluated after 13 days; for pest or weed control at 250 g/ha: 250 g ai/ha, read-out: damage to plant, Pigweed, Redroot (100=total damage to plant; 0=no damage to plant)
Summary of the method: as §1

[6] = tested on: velvetleaf (Abutilon theophrasti); test: Test G Post-Emergence Protocol; settings: Abutilon theophrasti, post-emergence, 312 h; for pest or weed control at 15.625 g/ha: 15.625 g ai/ha, evaluated after 13 days (100=total damage to plant; 0=no damage to plant), read-out: Velvetleaf damage rating; for pest or weed control at 62.5 g/ha: 62.5 g ai/ha, read-out: Velvetleaf damage rating (100=total damage to plant; 0=no damage to plant); for pest or weed control at 62.5 g/ha / pest or weed control at 250 g/ha: evaluated after 13 days; for pest or weed control at 250 g/ha: 250 g ai/ha, read-out: damage to plant, Velvetleaf (100=total damage to plant; 0=no damage to plant)
Summary of the method: as §1

[7] = tested on: ivy-leaved morning glory (Ipomoea hederacea); test: Test G Pre-Emergence Protocol; settings: Ipomoea, pre-emergence, 312 h, evaluated after 13 days; for pest or weed control at 15.625 g/ha: 15.625 g ai/ha, read-out: Morning-glory, Ivy-leaved damage rating (100=total damage to plant; 0=no damage to plant); for pest or weed control at 62.5 g/ha: 62.5 g ai/ha, 100=total damage to plant, 0=no damage to plant, read-out: plant damage rating, Morningglory, Ivy-leaved; for pest or weed control at 250 g/ha: 250 g ai/ha, read-out: Morningglory, Ivy-leaved damage rating (100=total damage to plant; 0=no damage to plant)
Summary of the method: (§2)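 One day after sowing, pots are treated with a spray of test compound formulated in acetone/water 50:50 plus 0.5% Tween 20, giving 15.625, 62.5 or 250 g/ha. Evaluation on a 0–100 damage scale follows 13 days of glasshouse growth.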

corn (Zea mays) [8] = test: Test G Pre-Emergence Protocol; settings: Zea mays, pre-emergence, 312 h, evaluated after 13 days; for plant injury at 15.625 g/ha: 15.625 g ai/ha; for plant injury at 15.625 g/ha / plant injury at 250 g/ha: read-out: Corn damage rating (100=total damage to plant; 0=no damage to plant); for plant injury at 62.5 g/ha: 62.5 g ai/ha, 100=total damage to plant, 0=no damage to plant, read-out: plant damage rating, Corn; for plant injury at 250 g/ha: 250 g ai/ha
Summary of the method: as §2

[9] = tested on: barnyardgrass (Echinochloa crus-galli); test: Test G Pre-Emergence Protocol; settings: Echinochloa crus-galli, pre-emergence, 312 h, evaluated after 13 days; for pest or weed control at 15.625 g/ha: 15.625 g ai/ha, read-out: Barnyard grass damage rating (100=total damage to plant; 0=no damage to plant); for pest or weed control at 62.5 g/ha: 62.5 g ai/ha, 100=total damage to plant, 0=no damage to plant, read-out: plant damage rating, Barnyardgrass; for pest or weed control at 250 g/ha: 250 g ai/ha, read-out: Barnyardgrass damage rating (100=total damage to plant; 0=no damage to plant)
Summary of the method: as §2

[10] = tested on: giant foxtail (Setaria faberi); test: Test G Pre-Emergence Protocol; settings: Setaria faberi, pre-emergence, 312 h, evaluated after 13 days; for pest or weed control at 15.625 g/ha: 15.625 g ai/ha; for pest or weed control at 15.625 g/ha / pest or weed control at 250 g/ha: read-out: Foxtail, Giant damage rating (100=total damage to plant; 0=no damage to plant); for pest or weed control at 62.5 g/ha: 62.5 g ai/ha, 100=total damage to plant, 0=no damage to plant, read-out: plant damage rating, Foxtail, Giant; for pest or weed control at 250 g/ha: 250 g ai/ha
Summary of the method: as §2

[11] = tested on: redroot pigweed (Amaranthus retroflexus); test: Test G Pre-Emergence Protocol; settings: Amaranthus retroflexus, pre-emergence, 312 h, evaluated after 13 days; for pest or weed control at 15.625 g/ha: 15.625 g ai/ha; for pest or weed control at 15.625 g/ha / pest or weed control at 250 g/ha: read-out: Pigweed, Redroot damage rating (100=total damage to plant; 0=no damage to plant); for pest or weed control at 62.5 g/ha: 62.5 g ai/ha, 100=total damage to plant, 0=no damage to plant, read-out: plant damage rating, Pigweed, Redroot; for pest or weed control at 250 g/ha: 250 g ai/ha
Summary of the method: as §2

[12] = tested on: velvetleaf (Abutilon theophrasti); test: Test G Pre-Emergence Protocol; settings: Abutilon theophrasti, pre-emergence, 312 h, evaluated after 13 days; for pest or weed control at 15.625 g/ha: 15.625 g ai/ha; for pest or weed control at 15.625 g/ha / pest or weed control at 250 g/ha: read-out: Velvetleaf damage rating (100=total damage to plant; 0=no damage to plant); for pest or weed control at 62.5 g/ha: 62.5 g ai/ha, 100=total damage to plant, 0=no damage to plant, read-out: plant damage rating, Velvetleaf; for pest or weed control at 250 g/ha: 250 g ai/ha
Summary of the method: as §2

CSc1nccc(NC(=O)[C@@H]2C(=O)N(C)C[C@H]2c2ccc(C(F)(F)F)cc2)n1 (racemic) [Compound 1516]
0%: pest or weed control at 15.625 g/ha [1] | pest or weed control at 62.5 g/ha [1] | pest or weed control at 250 g/ha [1] | plant injury at 15.625 g/ha (corn (Zea mays) [2]) | plant injury at 62.5 g/ha (corn (Zea mays) [2]) | plant injury at 250 g/ha (corn (Zea mays) [2]) | pest or weed control at 15.625 g/ha [3] | pest or weed control at 62.5 g/ha [3] | pest or weed control at 250 g/ha [3] | pest or weed control at 15.625 g/ha [4] | pest or weed control at 62.5 g/ha [4] | pest or weed control at 250 g/ha [4] | pest or weed control at 15.625 g/ha [5] | pest or weed control at 62.5 g/ha [5] | pest or weed control at 250 g/ha [5] | pest or weed control at 15.625 g/ha [6] | pest or weed control at 62.5 g/ha [6] | pest or weed control at 250 g/ha [6] | pest or weed control at 15.625 g/ha [7] | pest or weed control at 62.5 g/ha [7] | pest or weed control at 250 g/ha [7] | plant injury at 15.625 g/ha (corn (Zea mays) [8]) | plant injury at 62.5 g/ha (corn (Zea mays) [8]) | plant injury at 250 g/ha (corn (Zea mays) [8]) | pest or weed control at 15.625 g/ha [9] | pest or weed control at 62.5 g/ha [9] | pest or weed control at 250 g/ha [9] | pest or weed control at 15.625 g/ha [10] | pest or weed control at 62.5 g/ha [10] | pest or weed control at 250 g/ha [10] | pest or weed control at 15.625 g/ha [11] | pest or weed control at 62.5 g/ha [11] | pest or weed control at 250 g/ha [11] | pest or weed control at 15.625 g/ha [12] | pest or weed control at 62.5 g/ha [12] | pest or weed control at 250 g/ha [12]

Cc1cc(NC(=O)[C@@H]2C(=O)N(C)C[C@H]2c2ccc(C(F)(F)F)cc2)[nH]n1 (racemic) [Compound 1626]
0%: pest or weed control at 15.625 g/ha [1] | pest or weed control at 62.5 g/ha [1] | pest or weed control at 250 g/ha [1] | plant injury at 15.625 g/ha (corn (Zea mays) [2]) | plant injury at 62.5 g/ha (corn (Zea mays) [2]) | plant injury at 250 g/ha (corn (Zea mays) [2]) | pest or weed control at 15.625 g/ha [3] | pest or weed control at 62.5 g/ha [3] | pest or weed control at 250 g/ha [3] | pest or weed control at 15.625 g/ha [4] | pest or weed control at 62.5 g/ha [4] | pest or weed control at 250 g/ha [4] | pest or weed control at 15.625 g/ha [5] | pest or weed control at 62.5 g/ha [5] | pest or weed control at 250 g/ha [5] | pest or weed control at 15.625 g/ha [6] | pest or weed control at 62.5 g/ha [6] | pest or weed control at 250 g/ha [6] | pest or weed control at 15.625 g/ha [7] | pest or weed control at 62.5 g/ha [7] | pest or weed control at 250 g/ha [7] | plant injury at 15.625 g/ha (corn (Zea mays) [8]) | plant injury at 62.5 g/ha (corn (Zea mays) [8]) | plant injury at 250 g/ha (corn (Zea mays) [8]) | pest or weed control at 15.625 g/ha [9] | pest or weed control at 62.5 g/ha [9] | pest or weed control at 250 g/ha [9] | pest or weed control at 15.625 g/ha [10] | pest or weed control at 62.5 g/ha [10] | pest or weed control at 250 g/ha [10] | pest or weed control at 15.625 g/ha [11] | pest or weed control at 62.5 g/ha [11] | pest or weed control at 250 g/ha [11] | pest or weed control at 15.625 g/ha [12] | pest or weed control at 62.5 g/ha [12] | pest or weed control at 250 g/ha [12]
